Reference: article PMC9196953 (Drug development research, 1999)

Key:
human A3 receptors = target: T1, human A3 receptors (Homo sapiens, UniProt P0DMS8); experiment: Binding at recombinant human A3 receptors expressed in HEK-293 cells vs [125I]ABA; details: recombinant human A3 in HEK-293 cells, read-out: Ki hA3
T1 construct: expressed in transfected cells; host or cells: HEK-293
T1 sequence (P0DMS8 1-318): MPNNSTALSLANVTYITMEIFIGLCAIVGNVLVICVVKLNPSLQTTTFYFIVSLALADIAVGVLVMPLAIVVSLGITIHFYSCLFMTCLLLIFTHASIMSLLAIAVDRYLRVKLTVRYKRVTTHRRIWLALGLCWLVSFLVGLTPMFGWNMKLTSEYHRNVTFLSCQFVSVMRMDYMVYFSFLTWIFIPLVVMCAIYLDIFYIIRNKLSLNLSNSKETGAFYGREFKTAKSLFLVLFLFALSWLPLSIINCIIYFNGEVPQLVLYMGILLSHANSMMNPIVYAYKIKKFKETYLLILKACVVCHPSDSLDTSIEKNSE
Experimental: (§1) All nonradioactive compounds were initially dissolved in DMSO and diluted with buffer to the final concentration, where the amount of DMSO never exceeded 2%. Incubations were terminated by rapid filtration over Whatman GF/B filters using a Brandell cell harvester. The tubes were rinsed three times with 3 mL buffer each.
(§2) At least six different concentrations of competitor, spanning 3 orders of magnitude adjusted appropriately for the IC50 value of each compound, were used. IC50 values, calculated with the nonlinear regression method implemented in Graph-Pad Prism (San Diego, CA) were converted to apparent Ki values as described by [Linden [1982]]. Hill coefficients of the tested compounds were in the range of 0.8–1.1.
(§3) At A2B receptors, two radioligand binding assays (Table 1) were used. Ki values of xanthine derivatives were determined in displacement of binding of the non-selective radioligands […], 8 (4-(2-[7-amino-2-{furyl}{1,2,4}triazolo{2,3-a}{1,3,5}tr nzyl)-8-phenyloxyacetate-1-propyl-xanthine), at human A2B receptors expressed in HEK-293 cell membranes [[Linden and Jacobson, 1998]]. In order to evaluate selectivity, selected derivatives were subjected to standard binding assays at A1, A2A, and A3 receptors. The initial screening utilized rat brain A1/A2A receptors (with radioligands [^3H]R-PIA and [^3H]CGS-21680), and selected compounds were examined at the recombinant human subtypes (Table 1), using [^3H]CPX ([^3H]8-cyclopentyl-1,3-dipropylxanthine) and ^125I-ZM 241385, ^125I-4-(2-[7-amino-2-[2-furyl][1,2,4]triazolo[2,3-a][1,3,5]triazin-5-yl-amino]ethyl)phenol) [[Palmer et al., 1996]].

rat A2A receptors = target: T2, rat A2A receptors (Rattus norvegicus, UniProt P30543); experiment: Displacement of [3H]CGS 21680 binding to A2A receptors in rat striatal membranes; details: for Ki: read-out: Ki rA2A
T2 construct: to A2A receptors from rat striatal membranes; from tissue; host or cells: rat striatal membranes
T2 sequence (P30543 whole entry): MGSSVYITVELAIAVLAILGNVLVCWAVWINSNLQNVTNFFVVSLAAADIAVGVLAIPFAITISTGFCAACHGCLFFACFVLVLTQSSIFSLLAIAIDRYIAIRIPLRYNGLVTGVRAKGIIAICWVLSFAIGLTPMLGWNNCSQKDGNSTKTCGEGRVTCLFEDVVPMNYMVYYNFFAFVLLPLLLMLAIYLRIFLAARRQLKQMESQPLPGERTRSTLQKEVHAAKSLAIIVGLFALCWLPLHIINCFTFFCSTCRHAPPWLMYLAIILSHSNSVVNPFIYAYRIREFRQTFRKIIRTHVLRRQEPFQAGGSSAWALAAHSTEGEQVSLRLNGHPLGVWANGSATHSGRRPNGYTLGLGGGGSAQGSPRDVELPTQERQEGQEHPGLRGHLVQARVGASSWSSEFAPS
Experimental: as §1, §2, §3

human A1 receptors = target: T3, human A1 receptors (Homo sapiens, UniProt P30542); experiment: Binding at recombinant human A1 receptors expressed in HEK-293 cells vs [3H]CPX; details: recombinant human A1 in HEK-293 cells
T3 construct: expressed in transfected cells; host or cells: HEK-293
T3 sequence (P30542 1-326): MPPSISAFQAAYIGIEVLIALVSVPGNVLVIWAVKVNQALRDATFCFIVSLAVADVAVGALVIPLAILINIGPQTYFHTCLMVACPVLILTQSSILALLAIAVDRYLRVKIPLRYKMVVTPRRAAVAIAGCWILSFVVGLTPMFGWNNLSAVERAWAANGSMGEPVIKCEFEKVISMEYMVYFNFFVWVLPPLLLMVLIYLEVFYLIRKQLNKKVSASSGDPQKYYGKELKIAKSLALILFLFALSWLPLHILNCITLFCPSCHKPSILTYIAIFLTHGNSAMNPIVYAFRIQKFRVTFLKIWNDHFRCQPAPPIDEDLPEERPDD
Experimental: as §1, §2, §3

Structure (SMILES)	Ki (human A3 receptors)	Ki (rat A2A receptors)	Ki (human A1 receptors)	% displacement rA2A (rat A2A receptors; rat striatal membranes, [3H]CGS 21680, at 10^−4)
CCCn1c(=O)c2[nH]c(-c3ccc(OCC(=O)NNC(=O)CCC(=O)O)cc3)nc2n(CCC)c1=O [Compound 9, 8-[4-[(Carboxymethyl)oxy]phenyl]-1,3-di-(n-propyl)xanthine N-[(3-Carboxy)-n-propionyl]hydrazide]	173 ± 27 nM	174 ± 32 nM	219 nM	
CCCn1c(=O)c2[nH]c(-c3ccc(OCC(=O)NN4C(=O)c5ccccc5C4=O)cc3)nc2n(CCC)c1=O [Compound 21, 8-[4-[(Carboxymethyl)oxy]phenyl]-1,3-di-(n-propyl)xanthine N,N-Phthaloylhydrazide]	147 ± 21 nM	392 ± 117 nM	210 nM	
CCCn1c(=O)c2[nH]c(-c3ccc(OCC(=O)OCC)cc3)nc2n(CCC)c1=O [Compound 4b]	48.5 ± 0.8 nM	128 ± 15 nM	203 nM	
CCCn1c(=O)c2[nH]c(-c3ccc(OCC(=O)NN4C(=O)C(C)=C(C)C4=O)cc3)nc2n(CCC)c1=O [Compound 14, 8-[4-[(Carboxymethyl)oxy]phenyl]-1,3-di-(n-propyl)xanthine N,N-[(1,2-Dimethyl)maleyl]hydrazide]	670 ± 154 nM	126 ± 41 nM	3030 nM	

Second part, the molecule after the results:

Ki (human A3 receptors)	Ki (rat A2A receptors)	Ki (human A1 receptors)	% displacement rA2A (rat A2A receptors; rat striatal membranes, [3H]CGS 21680, at 10^−4)	Structure (SMILES)
14200 nM		8080 nM	36 ± 4%	CCCn1c(=O)[nH]c(=O)c2[nH]c(-c3ccc(OCC(=O)NN4C(=O)C(C)=C(C)C4=O)cc3)nc21 [Compound 15, 8-[4-[(Carboxymethyl)oxy]phenyl]-1H-3-(n-propyl)xanthine N,N-[(1,2-Dimethyl)maleyl]hydrazide]
30.9 ± 8.2 nM	227 ± 64 nM	125 nM		CCCn1c(=O)c2[nH]c(-c3ccc(OCC(=O)NNC(C)=O)cc3)nc2n(CCC)c1=O [Compound 4e, 8-[4-[(Carboxymethyl)oxy]phenyl]-1,3-di-(n-propyl)xanthine N-Acetylhydrazide]
